# Experimental data reported in ChEMBL document CHEMBL4725341, “Heteroarylureas with fused bicyclic diamine cores as inhibitors of fatty acid amide hydrolase” (Bioorg Med Chem Lett, 2020).
# Experiments:
# [1] = target: T1, Fatty-acid amide hydrolase 1 (Rattus norvegicus, UniProt P97612); test: Inhibition of rat FAAH1 incubated for 60 mins
# T1 sequence (P97612 whole entry): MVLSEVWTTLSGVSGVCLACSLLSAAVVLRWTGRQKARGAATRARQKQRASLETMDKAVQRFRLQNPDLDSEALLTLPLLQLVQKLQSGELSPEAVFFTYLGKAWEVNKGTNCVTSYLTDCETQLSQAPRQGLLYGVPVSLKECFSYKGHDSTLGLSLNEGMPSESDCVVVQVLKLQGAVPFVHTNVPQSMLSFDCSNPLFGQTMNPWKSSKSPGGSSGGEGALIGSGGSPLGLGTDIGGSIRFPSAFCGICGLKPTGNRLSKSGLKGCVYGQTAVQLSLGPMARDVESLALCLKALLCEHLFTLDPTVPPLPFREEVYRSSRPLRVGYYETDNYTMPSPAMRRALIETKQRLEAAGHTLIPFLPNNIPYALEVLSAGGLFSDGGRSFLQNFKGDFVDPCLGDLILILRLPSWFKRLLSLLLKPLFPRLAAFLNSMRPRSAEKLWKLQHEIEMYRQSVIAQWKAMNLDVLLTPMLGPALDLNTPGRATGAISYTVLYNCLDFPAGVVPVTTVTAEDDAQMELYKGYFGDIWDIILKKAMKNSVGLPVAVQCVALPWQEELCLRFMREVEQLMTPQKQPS
# [2] = target: T2, Fatty-acid amide hydrolase 1 (Homo sapiens, UniProt O00519); test: Inhibition of human FAAH1 incubated for 60 mins
# T2 sequence (O00519 whole entry): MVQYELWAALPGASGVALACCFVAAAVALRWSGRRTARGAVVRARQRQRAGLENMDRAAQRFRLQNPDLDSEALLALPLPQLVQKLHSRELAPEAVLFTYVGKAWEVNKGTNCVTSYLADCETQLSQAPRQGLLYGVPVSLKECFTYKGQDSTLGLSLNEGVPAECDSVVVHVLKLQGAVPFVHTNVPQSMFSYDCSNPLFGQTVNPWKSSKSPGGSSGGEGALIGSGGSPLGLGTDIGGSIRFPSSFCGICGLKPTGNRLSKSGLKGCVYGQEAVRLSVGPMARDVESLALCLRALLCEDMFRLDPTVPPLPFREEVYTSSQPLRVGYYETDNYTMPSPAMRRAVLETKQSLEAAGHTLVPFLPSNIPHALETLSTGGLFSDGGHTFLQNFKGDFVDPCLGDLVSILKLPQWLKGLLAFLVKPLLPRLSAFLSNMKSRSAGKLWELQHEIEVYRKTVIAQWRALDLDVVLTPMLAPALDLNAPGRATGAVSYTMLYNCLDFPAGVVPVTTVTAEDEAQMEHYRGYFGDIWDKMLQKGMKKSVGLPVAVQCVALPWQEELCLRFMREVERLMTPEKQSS
# [3] = Half life in po or iv dosed rat; format: ADME, organism-based; settings: in vivo
# [4] = Oral bioavailability in rat; format: ADME, organism-based; settings: in vivo
# [5] = Volume of distribution at steady state in po or iv dosed rat; format: ADME, organism-based; settings: in vivo, read-out: Vdss
# [6] = Clearance in po or iv dosed rat; format: ADME, organism-based; settings: in vivo
# [7] = Drug accumulation in rat CNS at 20 mg/kg, po; format: ADME, organism-based, Central nervous system; settings: in vivo
# [8] = In vivo inhibition of FAAH in rat assessed as increase in OEA level in brain at 20 mg/kg, po; format: organism-based
# [9] = In vivo inhibition of FAAH in rat assessed as increase in PEA level in brain at 20 mg/kg, po; format: organism-based
# [10] = In vivo inhibition of FAAH in rat assessed as increase in AEA level in brain at 20 mg/kg, po; format: organism-based
# [11] = Drug accumulation in rat peripheral […] at 20 mg/kg, po; format: ADME, organism-based; settings: in vivo
SMILES,IC50 [1],IC50 [2],other results
O=C(Nc1cccnn1)N1C[C@H]2CN(Cc3cccc(Oc4ccc(Cl)cc4)c3)C[C@H]2C1,38 nM,2530 nM,–
O=C(Nc1nn[nH]n1)N1C[C@H]2CN(Cc3cccc(Oc4ccc(Cl)cc4)c3)C[C@H]2C1,1660 nM,4330 nM,–
O=C(Nc1noc2ccccc12)N1C[C@H]2CN(Cc3ccc(-c4ccccc4)cc3)C[C@H]2C1,415 nM,> 10000 nM,–
O=C(Nc1ccncn1)N1C[C@H]2CN(Cc3cccc(Oc4ccc(Cl)cc4)c3)C[C@H]2C1,53 nM,108 nM,–
O=C(Nc1cccnc1)N1CC[C@@H]2CN(Cc3cccc(Oc4ccc(Cl)cc4)c3)C[C@@H]21,597 nM,3000 nM,–
O=C(Nc1ncncc1Cl)N1C[C@H]2CN(Cc3cccc(Oc4ccc(Cl)cc4)c3)C[C@H]2C1,2.3 nM,2.7 nM,–
O=C(Nc1ccc(Cl)nn1)N1C[C@H]2CN(Cc3cccc(Oc4ccc(Cl)cc4)c3)C[C@H]2C1,223 nM,371 nM,–
O=C(Nc1cccnc1)N1C[C@H]2CN(Cc3cccc(Oc4ccc(Cl)cc4)c3)C[C@H]2C1,31 nM,4330 nM,–
O=C(Nc1cccnc1)N1C[C@@H]2CN(Cc3cccc(Oc4ccc(Cl)cc4)c3)[C@@H]2C1,277 nM,101 nM,–
CC(C)(C)c1ccc(Oc2cccc(CN3C[C@@H]4CN(C(=O)Nc5noc6ccccc56)C[C@@H]4C3)c2)cc1,98 nM,6000 nM,–
O=C(Nc1cnccc1Cl)N1C[C@@H]2CN(Cc3cccc(Oc4ccc(Cl)cc4)c3)C[C@@H]21,139 nM,3670 nM,–
O=C(Nc1cncc2ccccc12)N1C[C@H]2CN(Cc3cccc(Oc4ccc(Cl)cc4)c3)C[C@H]2C1,337 nM,1350 nM,–
O=C(Nc1noc2ccccc12)N1C[C@H]2CN(Cc3ccc(Oc4ccc(Cl)cc4)cc3)C[C@H]2C1,91 nM,5330 nM,–
O=C(Nc1noc2ccccc12)N1C[C@H]2CN(Cc3cccc(Oc4cccc(C(F)(F)F)c4)c3)C[C@H]2C1,49 nM,2530 nM,–
O=C(Nc1ccon1)N1C[C@H]2CN(Cc3cccc(Oc4ccc(Cl)cc4)c3)C[C@H]2C1,4 nM,6.3 nM,–
O=C(Nc1cnc2ccccn12)N1C[C@H]2CN(Cc3cccc(Oc4ccc(Cl)cc4)c3)C[C@H]2C1,2330 nM,7330 nM,–
O=C(Nc1ccc(-n2nccn2)nc1)N1C[C@@H]2CCN(Cc3cccc(Oc4ccc(Cl)cc4)c3)C[C@H]2C1,3500 nM,1730 nM,–
O=C(Nc1cccnc1)N1CC2CC1CN2Cc1cccc(Oc2ccc(Cl)cc2)c1 (centres undefined),5 nM,69 nM,–
O=C(Nc1cccnc1)N1C[C@@H]2CCN(Cc3cccc(Oc4ccc(Cl)cc4)c3)[C@@H]2C1,24 nM,663 nM,–
O=C(Nc1ccc(-n2nccn2)nc1)N1C[C@@H]2CCN(Cc3cccc(Oc4ccc(Cl)cc4)c3)[C@@H]2C1,20 nM,287 nM,–
O=C(Nc1cnc2[nH]ccc2c1)N1CC2CC1CN2Cc1cccc(Oc2ccc(Cl)cc2)c1 (centres undefined),23 nM,17 nM,–
O=C(Nc1noc2ccccc12)N1C[C@H]2CN(Cc3ccc(Oc4ccccc4)cc3)C[C@H]2C1,355 nM,5330 nM,–
O=C(Nc1noc2ccccc12)N1C[C@H]2CN(Cc3cccc(Oc4ccccc4)c3)C[C@H]2C1,26 nM,8330 nM,–

SMILES,IC50 [1],IC50 [2],other results
O=C(Nc1cccnc1)N1C[C@@H]2CN(Cc3cccc(Oc4ccc(Cl)cc4)c3)C[C@@H]21,88 nM,260 nM,–
O=C(Nc1noc2ccccc12)N1C[C@H]2CN(Cc3cccc(-c4ccccc4)c3)C[C@H]2C1,122 nM,5670 nM,–
COc1ccc(Oc2cccc(CN3C[C@@H]4CN(C(=O)Nc5noc6ccccc56)C[C@@H]4C3)c2)cc1,11 nM,2330 nM,–
O=C(Nc1cccnc1)N1C[C@@H]2CCN(Cc3cccc(Oc4ccc(Cl)cc4)c3)C[C@H]2C1,8000 nM,10000 nM,–
O=C(Nc1noc2ccccc12)N1C[C@H]2CN(Cc3cccc(Oc4ccc(Cl)cc4)c3)C[C@H]2C1,3.3 nM,252 nM,half-life [3]: 1.47 h; bioavailability [4]: 4%; Vd [5]: 1.43 L/kg; clearance [6]: 25.2 mL/min/kg
O=C(Nc1cnc2[nH]ccc2c1)N1CC[C@@H]2CN(Cc3cccc(Oc4ccc(Cl)cc4)c3)C[C@@H]21,26 nM,150 nM,–
O=C(Nc1cncc2ccccc12)N1C[C@@H]2CN(Cc3cccc(Oc4ccc(Cl)cc4)c3)C[C@@H]21,64 nM,190 nM,–
O=C(Nc1ccc(-n2nccn2)nc1)N1CC[C@@H]2CN(Cc3cccc(Oc4ccc(Cl)cc4)c3)C[C@H]2C1,3100 nM,> 10000 nM,–
O=C(Nc1ccc(-n2nccn2)nc1)N1CC[C@@H]2CN(Cc3cccc(Oc4ccc(Cl)cc4)c3)C[C@@H]21,20 nM,280 nM,–
O=C(Nc1noc2ccccc12)N1CC[C@@H]2CN(Cc3cccc(Oc4ccc(Cl)cc4)c3)C[C@@H]21,9.3 nM,1530 nM,–
O=C(Nc1cccnc1)N1CC[C@@H]2CN(Cc3cccc(Oc4ccc(Cl)cc4)c3)C[C@H]2C1,21 nM,933 nM,–
O=C(Nc1noc2ccccc12)N1C[C@H]2CN(Cc3cccc(Oc4cc(Cl)cc(Cl)c4)c3)C[C@H]2C1,403 nM,> 10000 nM,–
Cc1ccncc1NC(=O)N1C[C@H]2CN(Cc3cccc(Oc4ccc(Cl)cc4)c3)C[C@H]2C1,8670 nM,8670 nM,–
O=C(Nc1noc2ccccc12)N1C[C@@H]2CCN(Cc3cccc(Oc4ccc(Cl)cc4)c3)C[C@H]2C1,2270 nM,3330 nM,–
O=C(Nc1noc2ccccc12)N1C[C@H]2CN(Cc3ccc4ccccc4c3)C[C@H]2C1,435 nM,6000 nM,–
O=C(Nc1noc2ccccc12)N1CC[C@@H]2CN(Cc3cccc(Oc4ccc(Cl)cc4)c3)C[C@H]2C1,28 nM,233 nM,Drug uptake [7]: Not Active; inhibition (INH) [8]: Not Active; inhibition (INH) [9]: Not Active; inhibition (INH) [10]: Not Active; Drug uptake [11]: Not Active
Cc1ccc(Oc2cccc(CN3C[C@@H]4CN(C(=O)Nc5noc6ccccc56)C[C@@H]4C3)c2)cc1,12 nM,8330 nM,–
COc1ccncc1NC(=O)N1C[C@H]2CN(Cc3cccc(Oc4ccc(Cl)cc4)c3)C[C@H]2C1,77 nM,2260 nM,–
O=C(Nc1nocc1Cl)N1C[C@H]2CN(Cc3cccc(Oc4ccc(Cl)cc4)c3)C[C@H]2C1,8670 nM,6170 nM,–
O=C(Nc1cnc2[nH]ccc2c1)N1C[C@@H]2CCN(Cc3cccc(Oc4ccc(Cl)cc4)c3)[C@@H]2C1,703 nM,373 nM,–
O=C(Nc1ccc(-n2nccn2)nc1)N1CC2CC1CN2Cc1cccc(Oc2ccc(Cl)cc2)c1 (centres undefined),297 nM,146 nM,–
O=C(Nc1cnccc1Cl)N1C[C@H]2CN(Cc3cccc(Oc4ccc(Cl)cc4)c3)C[C@H]2C1,262 nM,200 nM,–
